In brackets after ≈: the same amount, converted by molar mass. Several values for one entry are separate records, joined by “and”; a condition that tells them apart may be missing. Equal values may be shown once. Read-outs that look alike come from different tables or passages of the source.
Assays:
[1] = DPPH free radical scavenging activity; details: for IC50: DPPH antioxidant; for % inhibition: DPPH
Procedure: In the DPPH free radical scavenging activity, compounds (T1–T20) were evaluated for their free radical scavenging activity with ascorbic acid as standard compound. The scavenging effect increased with the increasing concentrations of sample compounds. DPPH is relatively stable nitrogen centered free radical that easily accepts an electron or hydrogen radical to become a stable diamagnetic molecule. DPPH radicals react with suitable reducing agents as a result of which the electrons become paired off forming the corresponding hydrazine. The solution therefore loses colour stoichometrically depending on the number of electrons taken up. […] The sample solutions were incubated for 30 min at room temperature in dark place and after then absorbance was recorded against the blank solution at 517 nm. The relative percent of DPPH scavenging activity was calculated according to the following equation: I%=Acontrol-Asample/Acontrol×100,
where Acontrol is the absorbance of the control, Asample is the absorbance of the test compound.

[2] = system: HCT116 (human colon cancer cells); test: Anticancer evaluation, SRB assay; format: cell-based
Procedure: HCT116 (human colon cancer cells) were seeded at 2500 cells/well (96 well plate), allowed to attach overnight, exposed to the respective compounds for 72 h and subjected to SRB assay (570 nm). Data represent mean IC50 of at least triplicates. The compounds were all dissolved in DMSO as stock of 100 mg/ml. […] The highest concentration of each compound tested (100 μg/ml) contained only 0.1% DMSO.

Bacillus subtilis = test: In vitro antimicrobial screening, tube dilution method; format: cell-based; details: B. substilis, Gram +ve, nutrient broth, 37 ± 1 °C, 24 h, read-out: Minimum inhibitory concentration
Procedure: (§1) The in vitro antimicrobial screening of the synthesized 1,2,4-triazole derivatives (T1–T20) in μM was determined against Gram-positive Bacillus subtilis, […], Gram-negative Escherichia coli bacterium and fungal strains Candida albicans and Aspergillus niger by tube dilution method using ciprofloxacin, amoxycillin (antibacterial) and fluconazole (antifungal) as reference drugs. DMSO was used to dissolve the reference and sample derivatives (T1–T20). Dilutions were prepared in nutrient broth (I.P.) for bacterial (incubated at 37 ± 1 °C for 24 h) and Sabouraud dextrose broth (I.P.) for fungal species (37 ± 1 °C for 48 h for C. albicans) and (25 ± 1 °C for 7 days for A. niger) (Table 3, Figs. 4 and 5).

Escherichia coli = test: as above; format: cell-based; details: E. coli, Gram −ve, nutrient broth, 37 ± 1 °C, 24 h, read-out: Minimum inhibitory concentration
Procedure: as §1

Pseudomonas aeruginosa = test: as above; format: cell-based; details: P. aeruginosa, Gram −ve, nutrient broth, 37 ± 1 °C, 24 h, read-out: Minimum inhibitory concentration
Procedure: as §1

Aspergillus niger = test: In vitro antifungal screening, tube dilution method; format: cell-based; details: A. niger, Sabouraud dextrose broth, 25 ± 1 °C, 7 days, read-out: Minimum inhibitory concentration
Procedure: as §1

Candida albicans = test: as above; format: cell-based; details: C. albican, Sabouraud dextrose broth, 37 ± 1 °C, 48 h, read-out: Minimum inhibitory concentration
Procedure: as §1

Jack Bean Urease = Jack Bean Urease (Canavalia ensiformis, UniProt P07374); test: biochemical; details: for % inhibition: urease
Procedure: Urease inhibitory potential for each synthesisized compound (T1–T20) was evaluated using Jack Bean Urease by Indophenol method (Table 5, Figs. 9, 10, 11). 250 µl of jack bean urease (4U) was mixed with 250 µl of different synthesized test compounds and standard of different concentrations [dissolved in DMSO/H2O mixture (1:1 v/v)]. The mixture was pre-incubated for 1 h at 37 °C in test tubes. 2 ml of 100 mM phosphate buffer (pH 6.8) containing 500 mM urea and 0.002% phenol red as an indicator were added in sample test tubes after pre incubation and again incubated at room temperature. Absorbance of reaction mixture was recorded by ELISA at 570 nm. Ammonium carbonate increased the pH of phosphate buffer from 6.8 to 7.7 which was produced from urea by urease enzyme and the end peak was measured by the colour of phenol red indicator [16].
The percentage inhibition of urease enzyme was calculated by using following formula: I%=Acontrol-Asample/Acontrol×100,
where Acontrol is the absorbance of the control; Asample is the absorbance of the test compound.

[3] = Homo sapiens, HCT-116, HCT116, 72 h, SRB, mean of at least triplicates
[4] = Homo sapiens, HCT-116, HCT116, value given in dose-response figure
[5] = HCT116, 72 h, SRB, mean of at least triplicates

Jack Bean Urease, sequence (P07374 whole entry, looked up): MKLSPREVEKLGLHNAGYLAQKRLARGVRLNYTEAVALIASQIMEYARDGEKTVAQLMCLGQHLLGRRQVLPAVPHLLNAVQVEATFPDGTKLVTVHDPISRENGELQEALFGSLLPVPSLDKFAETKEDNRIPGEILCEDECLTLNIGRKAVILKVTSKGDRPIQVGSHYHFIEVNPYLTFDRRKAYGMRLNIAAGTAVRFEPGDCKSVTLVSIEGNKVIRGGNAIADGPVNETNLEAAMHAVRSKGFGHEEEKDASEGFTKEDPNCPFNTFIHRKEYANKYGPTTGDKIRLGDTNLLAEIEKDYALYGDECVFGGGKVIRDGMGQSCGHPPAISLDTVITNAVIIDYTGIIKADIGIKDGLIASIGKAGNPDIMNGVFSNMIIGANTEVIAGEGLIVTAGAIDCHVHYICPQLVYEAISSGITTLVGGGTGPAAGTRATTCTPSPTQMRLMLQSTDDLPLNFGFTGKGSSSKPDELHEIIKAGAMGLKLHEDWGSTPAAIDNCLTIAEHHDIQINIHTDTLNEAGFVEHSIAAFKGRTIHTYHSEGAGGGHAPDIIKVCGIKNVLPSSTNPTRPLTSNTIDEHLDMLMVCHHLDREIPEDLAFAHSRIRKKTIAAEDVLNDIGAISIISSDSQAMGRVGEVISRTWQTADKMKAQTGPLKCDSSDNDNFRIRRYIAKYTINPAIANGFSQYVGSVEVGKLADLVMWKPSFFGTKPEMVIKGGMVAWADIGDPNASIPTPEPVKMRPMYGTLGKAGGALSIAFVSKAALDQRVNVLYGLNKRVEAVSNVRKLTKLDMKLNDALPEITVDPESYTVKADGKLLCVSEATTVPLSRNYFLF

Row | SMILES | IC50 [1] [µg/mL] | % inhibition ([1]; 25 µg/ml) [%] | % inhibition ([1]; 50 µg/ml) [%] | % inhibition ([1]; 75 µg/ml) [%] | % inhibition ([1]; 100 µg/ml) [%] | IC50 [2, 3] [µM] | MIC (Bacillus subtilis; Bacillus subtilis) [µM] | MIC (Escherichia coli; Escherichia coli) [µM] | MIC (Pseudomonas aeruginosa; Pseudomonas aeruginosa) [µM] | MIC (Aspergillus niger; Aspergillus niger, 168 h) [µM] | MIC (Candida albicans; Candida albicans) [µM] | IC50 (Jack Bean Urease) [µM] | inhibition at 25 µg/mL (Jack Bean Urease) [%] | inhibition at 50 µg/mL (Jack Bean Urease) [%] | inhibition at 75 µg/mL (Jack Bean Urease) [%] | inhibition at 100 µg/mL (Jack Bean Urease) [%] | melting point [°C] | MIC (Aspergillus niger) | also measured
1 | O=C1O[C@H]([C@@H](O)CO)C(O)=C1O [Ascorbic acid, reference compound] | 35.44 (≈ 201 µM) | 38.67 | 63.68 | 84.78 | 94.45 | – | – | – | – | – | – | – | – | – | – | – | – | – | –
2 | O=c1[nH]cc(F)c(=O)[nH]1 [Compound 5-FU, Fluorouracil, reference compound] | – | – | – | – | – | 25.4 | – | – | – | – | – | – | – | – | – | – | – | – | IC50 [2, 4]: 3.3 µg/mL
3 | CCCCCCCCCCCCCCCc1nnc(S)n1N=Cc1ccccc1 [Compound T1] | 46.83 (≈ 113 µM) | 25.45 | 49.65 | 69.67 | 94.78 | > 241 | 120 (≈ 50 µg/mL) | 241 (≈ 100 µg/mL) | 241 (≈ 100 µg/mL) | 120 (≈ 50 µg/mL) | 241 (≈ 100 µg/mL) | 125 | 25.8 | 48 | 72.9 | 92 | 184 to 187 | – | –
4 | CCCCCCCCCCCCCCCc1nnc(S)n1N=Cc1ccc(C=O)cc1 [Compound T2] | 34.83 (≈ 78.7 µM) | 45.67 | 56.98 | 70.16 | 84.21 | 3.84 | 56.4 (≈ 25 µg/mL) | 113 (≈ 50 µg/mL) | 56.4 (≈ 25 µg/mL) | 226 (≈ 100 µg/mL) | 226 (≈ 100 µg/mL) | 120 | 40.5 | 49.5 | 55.7 | 67.6 | 182 to 185 | – | IC50 [2, 4]: 1.7 µg/mL
5 | CCCCCCCCCCCCCCCc1nnc(S)n1N=Cc1ccc(C)cc1 [Compound T3] | 34.38 (≈ 80.2 µM) | 43.56 | 60.12 | 75.67 | 88.98 | 16.6 | 58.3 (≈ 25 µg/mL) | 117 (≈ 50 µg/mL) | 58.3 (≈ 25 µg/mL) | 117 (≈ 50 µg/mL) | 233 (≈ 100 µg/mL) | 126 | 28.2 | 50 | 65.9 | 79.1 | 190 to 193 | – | –
6 | CCCCCCCCCCCCCCCc1nnc(S)n1N=Cc1ccc(OC)c(OC)c1 [Compound T4] | 37.50 (≈ 79 µM) | 38.45 | 58.34 | 88.61 | 98.89 | 7.79 | 52.6 (≈ 25 µg/mL) | 105 (≈ 50 µg/mL) | 52.6 (≈ 25 µg/mL) | 105 (≈ 50 µg/mL) | 52.6 (≈ 25 µg/mL) | 106 | 35.5 | 49.5 | 63.7 | 79.5 | 188 to 191 | – | –
7 | CCCCCCCCCCCCCCCc1nnc(S)n1N=Cc1cc(OC)c(OC)c(OC)c1 [Compound T5] | 39.13 (≈ 77.5 µM) | 42.34 | 55.67 | 68.98 | 78.12 | > 198 | 24.7 (≈ 12.5 µg/mL) | 24.7 (≈ 12.5 µg/mL) | 12.3 (≈ 6.21 µg/mL) | 99 (≈ 50 µg/mL) | 12.3 (≈ 6.21 µg/mL) | 108 | 23.3 | 44.4 | 70.9 | 90.9 | – | 99.0 µM (≈ 50 µg/mL) | –
8 | CCCCCCCCCCCCCCCc1nnc(S)n1N=Cc1ccc(OC)c(O)c1 [Compound T6] | 45.66 (≈ 99.1 µM) | 31.67 | 53.67 | 77.78 | 92.67 | 112 | 108 (≈ 50 µg/mL) | 54.2 (≈ 25 µg/mL) | 54.2 (≈ 25 µg/mL) | 217 (≈ 100 µg/mL) | 108 (≈ 50 µg/mL) | 102 | 38.5 | 50.3 | 65.6 | 80.9 | 189 to 192 | 217.0 µM (≈ 100 µg/mL) | –
9 | CCCCCCCCCCCCCCCc1nnc(S)n1N=Cc1ccccc1O [Compound T7] | 38.54 (≈ 89.5 µM) | 46.75 | 52.56 | 60.56 | 70.41 | 3.25 | 116 (≈ 50 µg/mL) | 116 (≈ 50 µg/mL) | 29 (≈ 12.5 µg/mL) | 232 (≈ 100 µg/mL) | 232 (≈ 100 µg/mL) | 121 | 24 | 46.9 | 76.1 | 91.9 | 181 to 184 | – | MIC (Pseudomonas aeruginosa): 29.0 µM (≈ 12.5 µg/mL); IC50 [2, 4]: 1.4 µg/mL
10 | CCCCCCCCCCCCCCCc1nnc(S)n1N=Cc1c(O)ccc2ccccc12 [Compound T18] | – | 39.59 | 68.57 | 80.13 | 95.89 | – | – | – | – | – | – | – | – | – | – | – | – | 104 µM and 104.0 µM | MIC (Bacillus subtilis): 104.0 µM (≈ 50 µg/mL); MIC (Escherichia coli): 104.0 µM (≈ 50 µg/mL); MIC (Pseudomonas aeruginosa): 52.0 µM (≈ 25 µg/mL); MIC (Candida albicans): 208 µM and 208.0 µM; IC50 (Jack Bean Urease; urease inhibition): 54.30 µg/mL; % inhibition (Jack Bean Urease; 25 µg/ml): 40.90%; % inhibition (Jack Bean Urease; 50 µg/ml): 46.79%; % inhibition (Jack Bean Urease; 75 µg/ml): 55.89%; % inhibition (Jack Bean Urease; 100 µg/ml): 67.9%; IC50 [2, 5]: > 208 µM
11 | CCCCCCCCCCCCCCCc1nnc(S)n1N=Cc1ccco1 [Compound T20] | 46.34 (≈ 115 µM) | 33.45 | 53.67 | 70.46 | 92.67 | – | – | – | – | – | – | – | – | – | – | – | – | 247.1 µM (≈ 100 µg/mL) | MIC (Bacillus subtilis): 61.7 µM (≈ 25 µg/mL); MIC (Escherichia coli): 61.7 µM (≈ 25 µg/mL); MIC (Pseudomonas aeruginosa): 123.5 µM (≈ 50 µg/mL); MIC (Candida albicans): 247.1 µM (≈ 100 µg/mL); IC50 (Jack Bean Urease; urease inhibition): 52.34 µg/mL; % inhibition (Jack Bean Urease; 25 µg/ml): 28.98%; % inhibition (Jack Bean Urease; 50 µg/ml): 49.09%; % inhibition (Jack Bean Urease; 75 µg/ml): 69.09%; % inhibition (Jack Bean Urease; 100 µg/ml): 81.90%; IC50 [2, 5]: > 247 µM
12 | OC(Cn1cncn1)(Cn1cncn1)c1ccc(F)cc1F [Fluconazole, reference compound] | – | – | – | – | – | – | – | – | – | 20.4 (≈ 6.25 µg/mL) | 40.8 (≈ 12.5 µg/mL) | – | – | – | – | – | – | – | –
13 | NC(N)=S [Thiourea, reference compound] | – | – | – | – | – | – | – | – | – | – | – | – | – | – | – | – | – | – | IC50 (Jack Bean Urease; urease inhibition): 54.25 µg/mL; % inhibition (Jack Bean Urease; 25 µg/ml): 29.98%; % inhibition (Jack Bean Urease; 50 µg/ml): 46.76%; % inhibition (Jack Bean Urease; 75 µg/ml): 67.78%; % inhibition (Jack Bean Urease; 100 µg/ml): 76.78%
